{"source": "patent US8846670B2", "about": "“1,2,3,4-tetrahydro-pyrimido(1,2-a)pyrimidin-6-one derivatives, preparation thereof, and pharmaceutical use thereof” (priority 2009, dated 2014)", "assay_type_in_all_cases": "cell-based", "key": {"[1]": {"tested_on": "AKT protein phosphorylated on serine 473 (P-AKT-S473) in PC3 human prostate carcinoma line", "assay": "Study of pAKT expression in PC3 human prostate carcinoma cells measured by the MSD Multi-spot Biomarker Detection technique (Test B)", "conditions": "Homo sapiens, PC-3, P-AKT-S473 in PC3 cells, MSD sandwich immunoassay, 1 to 2 h incubation; absolute IC50, mean of 2 experiments", "protocol": "The inhibitory activity of the molecules on AKT phosphorylation is measured either by western blotting using the technique described below, or by the MSD Multi-spot Biomarker detection technique from Meso Scale Discovery also described below.\nStudy of pAKT Expression in PC3Human Prostate Carcinoma Cells Measured by the MSD Multi-Spot Biomarker Detection Technique from Meso Scale Discovery (Test B):\nThe primary antibody specific for P-AKT-S473 (Kit #K151CAD) is coated onto an electrode in each well of the 96-well plates of the MSD kit: after the addition of a protein lysate to each well, the signal is visualised by adding a secondary detection antibody labelled with an electrochemiluminescent compound. The procedure followed is that described in the kit.\nOn day 2, the cells are incubated in the presence or absence of the test products for 1 to 2 h at 37° C. in the presence of 5% of CO2. The molecules, diluted in dimethyl sulphoxide (DMSO Sigma #D2650), are added from a 20-times concentrated stock solution, the final percentage of DMSO being 0.1%.\nAfter this incubation, the cells are lysed for the preparation of the proteins. […] At this stage, the plates containing the lysates can be frozen at −20° C. or at −80° C.\nThe wells of the 96-well plates of the MSD kit are saturated for 1 h at ambient temperature with the blocking solution of the MSD kit. Four washes are carried out with 150 μl of Tris Wash Buffer of the MSD kit. The lysates previously prepared are transferred into the 96-well multi-spot plates of the MSD kit and incubated for 1 h at ambient temperature, with shaking. Four washes are carried out with 150 μl of Tris Wash Buffer of the MSD kit. 25 μl of the MSD sulfo-tag detection antibody solution are added to the wells and incubated for 1 h at ambient temperature, with shaking. Four washes are carried out with 150 μl of Tris Wash Buffer of the MSD kit. 150 μl of Read Buffer of the MSD kit are added to the wells and the plates are read immediately on the S12400 instrument from Meso Scale Discovery.\nThe instrument measures a signal for each well. Wells without cells and containing the lysis buffer serve to determine the background noise that will be subtracted from all the measurements (min). The wells containing cells in the absence of product and in the presence of 0.1% DMSO are considered to be the 100% signal (max). The percentage inhibition is calculated for each concentration of test product according to the following formula: (1−((test−min)/(max−min)))×100.\n2 independent experiments make it possible to calculate the mean of the IC50 values."}, "[2]": {"tested_on": "translocation of the LC3 protein in Hela GFP-LC3 cells", "assay": "Study of the translocation of the LC3 protein in Hela human cells, measured by image analysis cytometry (Test C, autophagy)", "conditions": "Homo sapiens, HeLa, 2 h, Hela GFP-LC3 cells with LC3 granulations, EBSS + 10 μM hydroxychloroquine, absolute IC50", "protocol": "The inhibitory activity of the molecules on autophagy is measured by the translocation of the LC3 protein from the cytoplasm to the autophagosomes. For this, Hela cells were transfected with a vector encoding the chimeric protein GFP-LC3. A Hela clone stably expressing the GFP-LC3 protein was selected.\nStudy of the Translocation of the LC3 Protein in Hela Human Cells, Measured by Image Analysis Cytometry (Test C):\nOn day 2, the cells are washed twice with EBSS (Sigma #E3024). The cells are then incubated in EBSS, 10 μM of hydroxychloroquine and test products for 2 h at 37° C. in the presence of 5% CO2. The molecules are diluted in dimethyl sulphoxide (DMSO Sigma #D2650), the final DMSO percentage being 0.1%.\nAfter this incubation, the cells are fixed with 4% paraformaldehyde (Sigma #HT501128 4 L) for 10 min. […] The 96-well plates are then read with the iCyte image analysis cytometer (Compucyte).\nTwo independent experiments make it possible to calculate the mean of the IC50 values."}, "[3]": {"tested_on": "P. falciparum (highly chloroquine-resistant strain Fcm29-Cameroon)", "assay": "Antimalarial activity test (radioactive micromethod of Desjardins)", "conditions": "Plasmodium falciparum, Erythrocyte, infected human erythrocytes, 48 h, tritiated hypoxanthine incorporation", "protocol": "Antimalarial Activity Test\nThe P. falciparum strains are cultured in solutions of RPM! […] For each assay, the parasites are incubated with selected concentrations of drugs for 48 h at 37° C. in a humid atmosphere and at 5% CO2. Artemisinin, artesunate and also chloroquine diphosphate are used as reference molecules. The first dilution of the drug is prepared at 1 mg/ml in dimethyl sulphoxide. The range of successive daughter solution dilutions is also prepared in dimethyl sulphoxide. […] These dilutions are then added to the parasites in culture in the microplates. […] The growth of the parasites is measured by incorporation of tritiated hypoxanthine (added 24 h after the beginning of the exposure to the drug) compared with the incorporation in the absence of drug."}}, "data": [{"smiles": "O=c1cc(N2CCOCC2)nc2n1CC[C@@H](C(F)(F)F)N2c1ccc(F)cc1", "note": "[Example 13, (8S)-9-(4-fluorophenyl)-2-(morpholin-4-yl)-8-(trifluoromethyl)-6,7,8,9-tetrahydro-4H-pyrimido[1,2-a]pyrimidin-4-one]", "values": [{"measurement": "IC50", "setting": "[1]", "value": 25, "unit": "nM"}, {"measurement": "IC50", "setting": "[2]", "value": 632, "unit": "nM"}, {"measurement": "inhibition at 1 µM", "setting": "[3]", "value": 52, "unit": "%"}]}, {"smiles": "COc1ccccc1CCN1c2nc(N3CCOCC3)cc(=O)n2CC[C@H]1C(F)(F)F", "note": "[Example 24, (8S)-9-[2-(2-methoxyphenyl)ethyl]-2-(morpholin-4-yl)-8-(trifluoromethyl)-6,7,8,9-tetrahydro-4H-pyrimido[1,2-a]pyrimidin-4-one]", "values": [{"measurement": "IC50", "setting": "[1]", "value": 9, "unit": "nM"}, {"measurement": "IC50", "setting": "[2]", "value": 103, "unit": "nM"}, {"measurement": "inhibition at 0.1 µM", "setting": "[3]", "value": 40, "unit": "%"}, {"measurement": "inhibition at 1 µM", "setting": "[3]", "value": 100, "unit": "%"}]}, {"smiles": "COc1ccc(N2c3nc(N4CCOCC4)cc(=O)n3CC[C@H]2C(F)(F)F)cc1", "note": "[Example 27, (8S)-9-(4-methoxyphenyl)-2-(morpholin-4-yl)-8-(trifluoromethyl)-6,7,8,9-tetrahydro-4H-pyrimido[1,2-a]pyrimidin-4-one]", "values": [{"measurement": "IC50", "setting": "[1]", "value": 10, "unit": "nM"}, {"measurement": "IC50", "setting": "[2]", "value": 363, "unit": "nM"}, {"measurement": "inhibition at 1 µM", "setting": "[3]", "value": 36, "unit": "%"}]}, {"smiles": "O=c1c(F)c(N2CCOCC2)nc2n1CC[C@@H](C(F)(F)F)N2Cc1ccccc1", "note": "[Example 41, (8S)-9-benzyl-3-fluoro-2-(morpholin-4-yl)-8-(trifluoro-methyl)-6,7,8,9-tetrahydro-4 H-pyrimido[1,2-a]pyrimidin-4-one]", "values": [{"measurement": "IC50", "setting": "[1]", "value": 4, "unit": "nM"}, {"measurement": "IC50", "setting": "[2]", "value": 192, "unit": "nM"}]}, {"smiles": "O=C(c1c(F)cccc1F)N1c2nc(N3CCOCC3)cc(=O)n2CC[C@H]1C(F)(F)F", "note": "[Example 43, (8S)-9-[(2,6-difluorophenyl)carbonyl]-2-(morpholin-4-yl)-8-(trifluoromethyl)-6,7,8,9-tetrahydro-4 H-pyrimido[1,2-a]pyrimidin-4-one]", "values": [{"measurement": "IC50", "setting": "[1]", "value": 16, "unit": "nM"}, {"measurement": "IC50", "setting": "[2]", "value": 986, "unit": "nM"}]}, {"smiles": "O=C(c1ccc(F)cc1F)N1c2nc(N3CCOCC3)cc(=O)n2CC[C@H]1C(F)(F)F", "note": "[Example 44, (8S)-9-[(2,4-difluorophenyl)carbonyl]-2-(morpholin-4-yl)-8-(trifluoromethyl)-6,7,8,9-tetrahydro-4 H-pyrimido[1,2-a]pyrimidin-4-one]", "values": [{"measurement": "IC50", "setting": "[1]", "value": 108, "unit": "nM"}, {"measurement": "IC50", "setting": "[2]", "value": "> 1000", "unit": "nM"}]}, {"smiles": "O=C(Cc1ccccc1)N1c2nc(N3CCOCC3)cc(=O)n2CC[C@H]1C(F)(F)F", "note": "[Example 45, (8S)-2-(morpholin-4-yl)-9-(phenylacetyl)-8-(trifluoromethyl)-6,7,8,9-tetrahydro-4 H-pyrimido[1,2-a]pyrimidin-4-one]", "values": [{"measurement": "IC50", "setting": "[1]", "value": 14, "unit": "nM"}, {"measurement": "IC50", "setting": "[2]", "value": "> 1000", "unit": "nM"}]}, {"smiles": "O=c1cc(N2CCOCC2)nc2n1CC[C@@H](C(F)(F)F)N2CCc1cccc(Cl)c1", "note": "[Example 46, (8S)-9-[2-(3-chlorophenyl)ethyl]-2-(morpholin-4-yl)-8-(trifluoromethyl)-6,7,8,9-tetrahydro-4 H-pyrimido[1,2-a]pyrimidin-4-one]", "values": [{"measurement": "IC50", "setting": "[1]", "value": 4, "unit": "nM"}, {"measurement": "IC50", "setting": "[2]", "value": 16, "unit": "nM"}]}, {"smiles": "O=c1cc(N2CCOCC2)nc2n1CC[C@@H](C(F)(F)F)N2C[C@@H](O)c1cc2ccccc2s1", "note": "[Example 48, 9-((R)-2-Benzo[b]thiophen-2-yl-2-hydroxyethyl)-2-morpholin-4-yl-8-(S)-trifluoromethyl-6,7,8,9-tetrahydro-pyrimido[1,2-a]pyrimidin-4-one]", "values": [{"measurement": "inhibition at 0.1 µM", "setting": "[3]", "value": 89, "unit": "%"}, {"measurement": "inhibition at 1 µM", "setting": "[3]", "value": 96, "unit": "%"}]}, {"smiles": "O=c1cc(N2CCOCC2)nc2n1CC[C@@H](C(F)(F)F)N2C[C@@H](O)c1cccc(O)c1", "note": "[Example 49, 9-[(S)-2-Hydroxy-2-(3-hydroxyphenyl)ethyl]-2-morpholin-4-yl-8-(S)-trifluoromethyl-6,7,8,9-tetrahydropyrimido[1,2-a]pyrimidin-4-one]", "values": [{"measurement": "inhibition at 0.1 µM", "setting": "[3]", "value": 81, "unit": "%"}, {"measurement": "inhibition at 1 µM", "setting": "[3]", "value": 99, "unit": "%"}]}, {"smiles": "CN(C)CC(=O)Nc1cccc([C@H](O)CN2c3nc(N4CCOCC4)cc(=O)n3CC[C@H]2C(F)(F)F)c1", "note": "[Example 50, 2-Dimethylamino-N-{3-[(S)-1-hydroxy-2-((S)-8-morpholin-4-yl-6-oxo-2-trifluoromethyl-3,4-dihydro-2H,6H-pyrimido[1,2-a]pyrimidin-1-yl)ethyl]phenyl}acetamide]", "values": [{"measurement": "inhibition at 0.1 µM", "setting": "[3]", "value": 79, "unit": "%"}, {"measurement": "inhibition at 1 µM", "setting": "[3]", "value": 99, "unit": "%"}]}, {"smiles": "COc1ccccc1[C@H](O)CN1c2nc(N3CCOCC3)cc(=O)n2CC[C@H]1C(F)(F)F", "note": "[Example 51, 9-[(S)-2-Hydroxy-2-(2-methoxyphenyl)ethyl]-2-morpholin-4-yl-8-(S)-trifluoromethyl-6,7,8,9-tetrahydropyrimido[1,2-a]pyrimidin-4-one]", "values": [{"measurement": "inhibition at 0.1 µM", "setting": "[3]", "value": 75, "unit": "%"}, {"measurement": "inhibition at 1 µM", "setting": "[3]", "value": 99, "unit": "%"}]}, {"smiles": "COc1cc(F)ccc1[C@H](O)CN1c2nc(N3CCOCC3)cc(=O)n2CC[C@H]1C(F)(F)F", "note": "[Example 52, 9-[(S)-2-(4-Fluoro-2-methoxyphenyl)-2-hydroxyethyl]-2-morpholin-4-yl-8-(S)-trifluoromethyl-6,7,8,9-tetrahydro-pyrimido[1,2-a]pyrimidin-4-one]", "values": [{"measurement": "inhibition at 0.1 µM", "setting": "[3]", "value": 75, "unit": "%"}, {"measurement": "inhibition at 1 µM", "setting": "[3]", "value": 99, "unit": "%"}]}, {"smiles": "COc1cc(Cl)ccc1[C@H](O)CN1c2nc(N3CCOCC3)cc(=O)n2CC[C@H]1C(F)(F)F", "note": "[Example 53, 9-[(S)-2-(4-Chloro-2-methoxyphenyl)-2-hydroxyethyl]-2-morpholin-4-yl-8-(S)-trifluoromethyl-6,7,8,9-tetrahydro-pyrimido[1,2-a]pyrimidin-4-one]", "values": [{"measurement": "inhibition at 0.1 µM", "setting": "[3]", "value": 75, "unit": "%"}, {"measurement": "inhibition at 1 µM", "setting": "[3]", "value": 99, "unit": "%"}]}, {"smiles": "COc1ccc([C@H](O)CN2c3nc(N4CCOCC4)cc(=O)n3CC[C@H]2C(F)(F)F)c(Cl)c1", "note": "[Example 54, 9-[(S)-2-(2-Chloro-4-methoxyphenyl)-2-hydroxyethyl]-2-morpholin-4-yl-8-(S)-trifluoromethyl-6,7,8,9-tetrahydro-pyrimido[1,2-a]pyrimidin-4-one]", "values": [{"measurement": "inhibition at 0.1 µM", "setting": "[3]", "value": 83, "unit": "%"}, {"measurement": "inhibition at 1 µM", "setting": "[3]", "value": 99, "unit": "%"}]}, {"smiles": "O=c1cc(N2CCOCC2)nc2n1CC[C@@H](C(F)(F)F)N2CC(O)Cc1ccccc1", "note": "(stereo partly drawn) [Example 55, 9-(2-Hydroxy-3-phenylpropyl)-2-morpholin-4-yl-8-(S)-trifluoromethyl-6,7,8,9-tetrahydropyrimido[1,2-a]pyrimidin-4-one]", "values": [{"measurement": "inhibition at 0.1 µM", "setting": "[3]", "value": 81, "unit": "%"}, {"measurement": "inhibition at 1 µM", "setting": "[3]", "value": 93, "unit": "%"}]}, {"smiles": "O=c1cc(N2CCOCC2)nc2n1CC[C@@H](C(F)(F)F)N2CCc1ccc(O)cc1", "note": "[Example 56, 9-[2-(4-Hydroxyphenyl)ethyl]-2-morpholin-4-yl-8-(S)-trifluoromethyl-6,7,8,9-tetrahydropyrimido[1,2-a]pyrimidin-4-one]", "values": [{"measurement": "inhibition at 0.1 µM", "setting": "[3]", "value": 94, "unit": "%"}, {"measurement": "inhibition at 1 µM", "setting": "[3]", "value": 99, "unit": "%"}]}]}
